Measurements: publication PMC4412765 (Chemical biology & drug design, 2014)
Read-outs that look alike come from different tables or passages of the source.

Assays:
cis-DPPS (Rv2361c) = cis-DPPS (Rv2361c) (Mycobacterium tuberculosis, UniProt P9WFF7)
M. smegmatis = test: Activity against the M. tuberculosis model M. smegmatis; assay type: cell-based
Rv3378c = Rv3378c (Mycobacterium tuberculosis, UniProt P9WJ61)
UPPS = conditions: cited from earlier work
S. aureus = conditions: cited from earlier work

Chain of cis-DPPS (Rv2361c) (P9WFF7 whole entry): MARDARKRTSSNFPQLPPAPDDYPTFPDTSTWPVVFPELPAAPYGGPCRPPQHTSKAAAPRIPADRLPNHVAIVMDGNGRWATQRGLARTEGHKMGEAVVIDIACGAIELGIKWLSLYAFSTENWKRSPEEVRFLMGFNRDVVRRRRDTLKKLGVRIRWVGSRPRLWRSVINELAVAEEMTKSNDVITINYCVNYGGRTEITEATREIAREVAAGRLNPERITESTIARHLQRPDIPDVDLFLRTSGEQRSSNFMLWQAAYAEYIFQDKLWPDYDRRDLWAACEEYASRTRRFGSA
Chain of Rv3378c (P9WJ61 whole entry): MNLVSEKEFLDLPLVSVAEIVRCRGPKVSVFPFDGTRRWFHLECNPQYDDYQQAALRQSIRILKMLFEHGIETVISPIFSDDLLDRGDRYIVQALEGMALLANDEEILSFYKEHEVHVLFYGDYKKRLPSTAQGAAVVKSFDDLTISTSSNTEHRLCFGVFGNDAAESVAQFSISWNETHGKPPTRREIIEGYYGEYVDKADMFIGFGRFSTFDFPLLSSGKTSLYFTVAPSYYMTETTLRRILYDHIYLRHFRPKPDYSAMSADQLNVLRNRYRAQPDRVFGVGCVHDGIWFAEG

## O=P(O)(O)C(O)(Cc1cccc(-c2cccc3c2oc2ccccc23)c1)P(=O)(O)O [BPH-629]
cis-DPPS (Rv2361c); read-out: IC50 against DPPS, cis-FPP as substrate
  IC50: 610 nM
M. smegmatis
  activity against M. smegmatis: inactive

## Cl.Cl.O=C(Nc1cccc(C2=NCCN2)c1)c1ccc(-c2ccc(C(=O)Nc3cccc(C4=NCCN4)c3)cc2)cc1 [BPH-1358]
Rv3378c
  activity against Rv3378c: inactive
UPPS
  UPPS inhibition: potent UPPS inhibitor

## C(=C\c1cc2ccc(C3=NCCN3)cc2[nH]1)/c1cc2ccc(C3=NCCN3)cc2[nH]1 [BPH-1417]
cis-DPPS (Rv2361c); read-out: IC50 against DPPS, depending on substrate
  IC50: 500 to 20000 nM
cis-DPPS (Rv2361c); read-out: IC50 against cis-DPPS, substrate not stated
  IC50: 1300 nM
S. aureus
  in vivo activity against S. aureus: potent
